Laboratory results published in the Kinase Knowledgebase extract (Sharma et al. 2016).

What follows are compounds tested against MAPK14 (human) (UniProt Q16539) (assay: Apoptotic Activity (Eosinophils)). Settings: concentration not given here.
MAPK14 (human), sequence (Q16539 whole entry, looked up): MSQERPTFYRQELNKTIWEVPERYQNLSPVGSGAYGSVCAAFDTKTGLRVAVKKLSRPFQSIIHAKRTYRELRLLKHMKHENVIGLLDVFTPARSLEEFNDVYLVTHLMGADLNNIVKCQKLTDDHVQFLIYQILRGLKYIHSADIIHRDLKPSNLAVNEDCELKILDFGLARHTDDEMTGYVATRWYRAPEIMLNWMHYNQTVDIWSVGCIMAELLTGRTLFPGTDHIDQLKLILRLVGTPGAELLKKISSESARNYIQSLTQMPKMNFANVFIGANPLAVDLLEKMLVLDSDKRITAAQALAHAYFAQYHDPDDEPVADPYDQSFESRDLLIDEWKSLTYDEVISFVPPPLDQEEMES

Point of comparison: `CC(C(=O)O)c1ccc(-c2ccccc2)c(F)c1` (stereo not drawn), apoptosis 32.5%. Against it:
- CS(=O)(=O)Nc1cc2c(cc1-c1ccc(F)c(S)c1F)C(=O)CC2 — lower, 28.9%
- COc1ccc2c(c1)c(CC(=O)O)c(C)n2C(=O)c1ccc(Cl)cc1 — lower, 27.7%
